Measured values from patent US20130065757A1, “CHEMICAL COMPOUNDS” (Syngenta Limited, priority 2010, published 2013).

What was measured:
Assay type in all cases: in vivo
[1] = system: Echinochloa crus-galli (ECHCG); test: Pre-emergence biological efficacy, glasshouse pot test; details: 312 h, 1,000 g/ha, evaluated after 13 days, 100=total damage, 0=no damage, read-out: Percentage damage caused to weed species, pre-emergence, ECHCG
Description: (§1) Seeds of Alopecurus myosuroides (ALOMY), Setaria faberi (SETFA), Echinochloa crus-galli (ECHCG), Solanum nigrum (SOLNI), Amaranthus retroflexus (AMARE) and Ipomoea hederaceae (IPOHE) were sown in standard soil in pots. After cultivation for one day under controlled conditions in a glasshouse (at 24/16° C., day/night; 14 hours light; 65% humidity), the plants were sprayed with an aqueous spray solution derived from the formulation of the technical active ingredient in acetone/water (50:50) solution containing 0.5% Tween 20 (polyoxyethylene sorbitan monolaurate, CAS RN 9005-64-5) to give a final dose of 1000 g/ha of test compound.
(§2) The test plants were then grown under controlled conditions in the glasshouse (at 24/16° C., day/night; 14 hours light; 65% humidity) and watered twice daily. After 13 days the test was evaluated (100=total damage to plant; 0=no damage to plant).

Solanum nigrum (SOLNI) [2] = test: as above; details: 312 h, 1,000 g/ha, evaluated after 13 days, 100=total damage, 0=no damage, read-out: Percentage damage caused to weed species, pre-emergence, SOLNI
Description: as §1, §2

[3] = system: Ipomoea hederaceae (IPOHE); test: as above; details: 312 h, 1,000 g/ha, evaluated after 13 days, 100=total damage, 0=no damage, read-out: Percentage damage caused to weed species, pre-emergence, IPOHE
Description: as §1, §2

[4] = system: Alopecurus myosuroides (ALOMY); test: as above; details: 312 h, 1,000 g/ha, evaluated after 13 days, 100=total damage, 0=no damage, read-out: Percentage damage caused to weed species, pre-emergence, ALOMY
Description: as §1, §2

Setaria faberi (SETFA) [5] = test: as above; details: 312 h, 1,000 g/ha, evaluated after 13 days, 100=total damage, 0=no damage, read-out: Percentage damage caused to weed species, pre-emergence, SETFA
Description: as §1, §2

[6] = system: Amaranthus retroflexus (AMARE); test: as above; details: 312 h, 1,000 g/ha, evaluated after 13 days, 100=total damage, 0=no damage, read-out: Percentage damage caused to weed species, pre-emergence, AMARE
Description: as §1, §2

[7] = system: Echinochloa crus-galli (ECHCG); test: Post-emergence biological efficacy, glasshouse pot test; details: 312 h, 1,000 g/ha, post-emergence (sprayed after 8 days), evaluated after 13 days, 100=total damage, 0=no damage, read-out: Percentage damage caused to weed species, post-emergence, ECHCG
Description: as §1, with “8 days” for “one day”
(§3) The test plants were then grown on under controlled conditions in a glasshouse (at 24/16° C., day/night; 14 hours light; 65% humidity) and watered twice daily. After 13 days the test was evaluated (100=total damage to plant; 0=no damage to plant).

Solanum nigrum (SOLNI) [8] = test: as above; details: 312 h, 1,000 g/ha, post-emergence (sprayed after 8 days), evaluated after 13 days, 100=total damage, 0=no damage, read-out: Percentage damage caused to weed species, post-emergence, SOLNI
Description: as §1, with “8 days” for “one day”
as §3

[9] = system: Ipomoea hederaceae (IPOHE); test: as above; details: 312 h, 1,000 g/ha, post-emergence (sprayed after 8 days), evaluated after 13 days, 100=total damage, 0=no damage, read-out: Percentage damage caused to weed species, post-emergence, IPOHE
Description: as §1, with “8 days” for “one day”
as §3

[10] = system: Alopecurus myosuroides (ALOMY); test: as above; details: 312 h, 1,000 g/ha, post-emergence (sprayed after 8 days), evaluated after 13 days, 100=total damage, 0=no damage, read-out: Percentage damage caused to weed species, post-emergence, ALOMY
Description: as §1, with “8 days” for “one day”
as §3

Setaria faberi (SETFA) [11] = test: as above; details: 312 h, 1,000 g/ha, post-emergence (sprayed after 8 days), evaluated after 13 days, 100=total damage, 0=no damage, read-out: Percentage damage caused to weed species, post-emergence, SETFA
Description: as §1, with “8 days” for “one day”
as §3

[12] = system: Amaranthus retroflexus (AMARE); test: as above; details: 312 h, 1,000 g/ha, post-emergence (sprayed after 8 days), evaluated after 13 days, 100=total damage, 0=no damage, read-out: Percentage damage caused to weed species, post-emergence, AMARE
Description: as §1, with “8 days” for “one day”
as §3

C=CCc1c(N)cc(Cl)nc1C(=O)OC [Compound 2-7, 4-amino-6-chloro-3-(prop-2-enyl)-pyridine-2-carboxylic acid methyl ester]
pest or weed control at 1000 g/ha [1]: 40%
pest or weed control at 1000 g/ha (Solanum nigrum (SOLNI) [2]): 90%
pest or weed control at 1000 g/ha [3]: 70%
pest or weed control at 1000 g/ha [4]: 30%
pest or weed control at 1000 g/ha (Setaria faberi (SETFA) [5]): 40%
pest or weed control at 1000 g/ha [6]: 90%
pest or weed control at 1000 g/ha [7]: 10%
pest or weed control at 1000 g/ha (Solanum nigrum (SOLNI) [8]): 90%
pest or weed control at 1000 g/ha [9]: 50%
pest or weed control at 1000 g/ha [10]: 20%
pest or weed control at 1000 g/ha (Setaria faberi (SETFA) [11]): 30%
pest or weed control at 1000 g/ha [12]: 90%

COC(=O)c1nc(Cl)cc(N)c1-c1ccc(Cl)cc1 [Compound 2-168, 4-Amino-6-chloro-3-(4-chlorophenyl)-pyridine-2-carboxylic acid methyl ester]
pest or weed control at 1000 g/ha [1]: 20%
pest or weed control at 1000 g/ha (Solanum nigrum (SOLNI) [2]): 80%
pest or weed control at 1000 g/ha [3]: 80%
pest or weed control at 1000 g/ha [4]: 30%
pest or weed control at 1000 g/ha (Setaria faberi (SETFA) [5]): 0%
pest or weed control at 1000 g/ha [6]: 90%
pest or weed control at 1000 g/ha [7]: 10%
pest or weed control at 1000 g/ha (Solanum nigrum (SOLNI) [8]): 80%
pest or weed control at 1000 g/ha [9]: 70%
pest or weed control at 1000 g/ha [10]: 20%
pest or weed control at 1000 g/ha (Setaria faberi (SETFA) [11]): 20%
pest or weed control at 1000 g/ha [12]: 100%

C=Cc1c(NCC(C)O)cc(Cl)nc1C(=O)OC (stereo not drawn) [Compound 21-4, 6-Chloro-3-ethenyl-4-(2-hydroxypropylamino)-pyridine-2-carboxylic acid methyl ester]
pest or weed control at 1000 g/ha [1]: 90%
pest or weed control at 1000 g/ha (Solanum nigrum (SOLNI) [2]): 100%
pest or weed control at 1000 g/ha [3]: 80%
pest or weed control at 1000 g/ha [4]: 90%
pest or weed control at 1000 g/ha (Setaria faberi (SETFA) [5]): 90%
pest or weed control at 1000 g/ha [6]: 100%
pest or weed control at 1000 g/ha [7]: 80%
pest or weed control at 1000 g/ha (Solanum nigrum (SOLNI) [8]): 100%
pest or weed control at 1000 g/ha [9]: 50%
pest or weed control at 1000 g/ha [10]: 70%
pest or weed control at 1000 g/ha (Setaria faberi (SETFA) [11]): 80%
pest or weed control at 1000 g/ha [12]: 100%

C/C=C/c1c(N)cc(Cl)nc1C(=O)OC [2-5 (E isomer), (E)-4-Amino-6-chloro-3-(prop-1-enyl)-pyridine-2-carboxylic acid methyl ester]
pest or weed control at 1000 g/ha [1]: 70%
pest or weed control at 1000 g/ha (Solanum nigrum (SOLNI) [2]): 100%
pest or weed control at 1000 g/ha [3]: 100%
pest or weed control at 1000 g/ha [4]: 90%
pest or weed control at 1000 g/ha (Setaria faberi (SETFA) [5]): 100%
pest or weed control at 1000 g/ha [6]: 90%
pest or weed control at 1000 g/ha [7]: 60%
pest or weed control at 1000 g/ha (Solanum nigrum (SOLNI) [8]): 90%
pest or weed control at 1000 g/ha [9]: 70%
pest or weed control at 1000 g/ha [10]: 50%
pest or weed control at 1000 g/ha (Setaria faberi (SETFA) [11]): 70%
pest or weed control at 1000 g/ha [12]: 100%

COC(=O)c1nc(Cl)cc(N)c1C(F)(F)F [Compound 2-2, 4-amino-6-chloro-3-trifluoromethyl-pyridine-2-carboxylic acid methyl ester]
pest or weed control at 1000 g/ha [1]: 10%
pest or weed control at 1000 g/ha (Solanum nigrum (SOLNI) [2]): 80%
pest or weed control at 1000 g/ha [3]: 90%
pest or weed control at 1000 g/ha [4]: 20%
pest or weed control at 1000 g/ha (Setaria faberi (SETFA) [5]): 0%
pest or weed control at 1000 g/ha [6]: 80%
pest or weed control at 1000 g/ha [7]: 10%
pest or weed control at 1000 g/ha (Solanum nigrum (SOLNI) [8]): 80%
pest or weed control at 1000 g/ha [9]: 70%
pest or weed control at 1000 g/ha [10]: 10%
pest or weed control at 1000 g/ha (Setaria faberi (SETFA) [11]): 10%
pest or weed control at 1000 g/ha [12]: 80%

C=Cc1c(C(=O)OC)nc(Cl)c(F)c1N [Compound 2-12, 4-amino-6-chloro-3-ethenyl-5-fluoro-pyridine-2-carboxylic acid methyl ester]
pest or weed control at 1000 g/ha [1]: 100%
pest or weed control at 1000 g/ha (Solanum nigrum (SOLNI) [2]): 100%
pest or weed control at 1000 g/ha [3]: 100%
pest or weed control at 1000 g/ha [4]: 100%
pest or weed control at 1000 g/ha (Setaria faberi (SETFA) [5]): 90%
pest or weed control at 1000 g/ha [6]: 100%
pest or weed control at 1000 g/ha [7]: 80%
pest or weed control at 1000 g/ha (Solanum nigrum (SOLNI) [8]): 100%
pest or weed control at 1000 g/ha [9]: 80%
pest or weed control at 1000 g/ha [10]: 80%
pest or weed control at 1000 g/ha (Setaria faberi (SETFA) [11]): 90%
pest or weed control at 1000 g/ha [12]: 100%

COC(=O)c1nc(Cl)cc(N)c1C [Compound 2-1, 4-amino-6-chloro-3-methyl-pyridine-2-carboxylic acid methyl ester]
pest or weed control at 1000 g/ha [1]: 70%
pest or weed control at 1000 g/ha (Solanum nigrum (SOLNI) [2]): 100%
pest or weed control at 1000 g/ha [3]: 80%
pest or weed control at 1000 g/ha [4]: 90%
pest or weed control at 1000 g/ha (Setaria faberi (SETFA) [5]): 80%
pest or weed control at 1000 g/ha [6]: 100%
pest or weed control at 1000 g/ha [7]: 60%
pest or weed control at 1000 g/ha (Solanum nigrum (SOLNI) [8]): 90%
pest or weed control at 1000 g/ha [9]: 50%
pest or weed control at 1000 g/ha [10]: 90%
pest or weed control at 1000 g/ha (Setaria faberi (SETFA) [11]): 100%
pest or weed control at 1000 g/ha [12]: 100%

C/C=C\c1c(N)cc(Cl)nc1C(=O)OC [2-5 (Z isomer), (Z)-4-Amino-6-chloro-3-(prop-1-enyl)-pyridine-2-carboxylic acid methyl ester]
pest or weed control at 1000 g/ha [1]: 70%
pest or weed control at 1000 g/ha (Solanum nigrum (SOLNI) [2]): 100%
pest or weed control at 1000 g/ha [3]: 90%
pest or weed control at 1000 g/ha [4]: 90%
pest or weed control at 1000 g/ha (Setaria faberi (SETFA) [5]): 100%
pest or weed control at 1000 g/ha [6]: 100%
pest or weed control at 1000 g/ha [7]: 60%
pest or weed control at 1000 g/ha (Solanum nigrum (SOLNI) [8]): 100%
pest or weed control at 1000 g/ha [9]: 50%
pest or weed control at 1000 g/ha [10]: 50%
pest or weed control at 1000 g/ha (Setaria faberi (SETFA) [11]): 80%
pest or weed control at 1000 g/ha [12]: 100%

C=Cc1c(NC2CCCC2)cc(Cl)nc1C(=O)OC [Compound 27-4, 6-Chloro-4-cyclopentylamino-3-ethenyl-pyridine-2-carboxylic acid methyl ester]
pest or weed control at 1000 g/ha [1]: 10%
pest or weed control at 1000 g/ha (Solanum nigrum (SOLNI) [2]): 100%
pest or weed control at 1000 g/ha [3]: 50%
pest or weed control at 1000 g/ha [4]: 50%
pest or weed control at 1000 g/ha (Setaria faberi (SETFA) [5]): 70%
pest or weed control at 1000 g/ha [6]: 100%
pest or weed control at 1000 g/ha [7]: 10%
pest or weed control at 1000 g/ha (Solanum nigrum (SOLNI) [8]): 80%
pest or weed control at 1000 g/ha [9]: 60%
pest or weed control at 1000 g/ha [10]: 10%
pest or weed control at 1000 g/ha (Setaria faberi (SETFA) [11]): 70%
pest or weed control at 1000 g/ha [12]: 100%

C=Cc1c(N)cc(Cl)nc1C(=O)OC [Compound 2-4, 4-amino-6-chloro-3-ethenyl-pyridine-2-carboxylic acid methyl ester]
pest or weed control at 1000 g/ha [1]: 90%
pest or weed control at 1000 g/ha (Solanum nigrum (SOLNI) [2]): 100%
pest or weed control at 1000 g/ha [3]: 100%
pest or weed control at 1000 g/ha [4]: 90%
pest or weed control at 1000 g/ha (Setaria faberi (SETFA) [5]): 90%
pest or weed control at 1000 g/ha [6]: 100%
pest or weed control at 1000 g/ha [7]: 80%
pest or weed control at 1000 g/ha (Solanum nigrum (SOLNI) [8]): 100%
pest or weed control at 1000 g/ha [9]: 80%
pest or weed control at 1000 g/ha [10]: 90%
pest or weed control at 1000 g/ha (Setaria faberi (SETFA) [11]): 100%
pest or weed control at 1000 g/ha [12]: 100%
